Reference: paper PMC7263589, “Integration of phage and yeast display platforms: A reliable and cost effective approach for binning of peptides as displayed on-phage” (PLoS ONE, 2020)
Bridge positions count the residues as written; N and C are the ends. Peptide text beside a SMILES is read from it.

Columns and labels:
IL-23 = target: T1, IL-23 (Homo sapiens, UniProt P29460+Q9NPF7); assay: SPR direct binding to captured IL-23-AVI (Biacore T200); conditions: IL-23-AVI captured on streptavidin chip, 25°C, 50 μl/min, 10 mM HEPES pH 7.5, 150 mM NaCl, 0.005% P20, 3% DMSO, 1:1 binding model, multi-cycle (single cycle kinetics for 23–652 and IL-23R), n = 1, 23–447 an estimate, read-out: ka
T1 construct: made in house
T1 sequence (Q9NPF7 20-189): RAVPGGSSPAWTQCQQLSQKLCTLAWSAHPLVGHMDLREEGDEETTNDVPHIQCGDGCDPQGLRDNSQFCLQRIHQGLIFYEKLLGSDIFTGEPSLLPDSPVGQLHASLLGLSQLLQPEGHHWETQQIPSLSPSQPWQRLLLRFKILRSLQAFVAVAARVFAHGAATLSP
T1 sequence (P29460 23-328): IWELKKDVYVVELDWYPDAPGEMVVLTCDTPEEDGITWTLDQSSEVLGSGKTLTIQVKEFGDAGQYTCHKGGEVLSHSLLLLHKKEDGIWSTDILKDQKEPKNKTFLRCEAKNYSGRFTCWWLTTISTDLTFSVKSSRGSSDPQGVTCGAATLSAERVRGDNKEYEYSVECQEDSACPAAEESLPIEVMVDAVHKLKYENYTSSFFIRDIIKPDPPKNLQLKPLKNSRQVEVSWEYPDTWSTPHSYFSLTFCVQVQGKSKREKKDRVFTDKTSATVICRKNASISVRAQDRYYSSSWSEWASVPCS
Experimental: SPR (Biacore T200, GE Healthcare) was used to determine binding constants of the peptides against IL-23 and their competitiveness to IL-23R. All SPR experiments were performed at 25°C with flow rate of 50 μl/min. Assay buffer used in direct binding experiment was 10 mM HEPES pH 7.5, 150 mM NaCl, 0.005% P20, and 3% DMSO. Assay buffer used in competition experiment was 10 mM HEPES pH 7.5, 150 mM NaCl, 0.005% P20, and 1% BSA. All peptides were reconstituted first in DMSO as 10 mM stocks and then diluted into assay buffer. The proteins used in direct binding and competition SPR are described in S1 Table in S1 File. For direct binding of peptides against IL-23, 2000–9000 RU of IL-23-AVI was captured to streptavidin sensor chips (GE Healthcare, Series S Sensor Chip SA, BR-1005-31). Dilution series with 3-fold increment were prepared for each peptide. Initially, all peptides were tested up to 30 μM. Concentration range for some were then lowered accordingly based on affinity or nuisance behavior at high concentrations. SPR “multi-cycle” type was used for peptides 23–644, 23–437, 23–441, 23–446, and 23–447. Each cycle consisted of 30s of analyte injection and then 60s of buffer flow to monitor dissociation. “Single cycle kinetics” (SCK) type was used for 23–652 due to their long dissociation half-lives. Each SCK cycle consisted of five 60s injections of sample in increasing concentration with a final 600s of dissociation. To study IL-23 and IL-23R interaction, 200–1000 RU of IL-23-AVI and IL-23R-Fc-AVI were captured to streptavidin sensor chip. Dilution series with 3-fold increment of IL-23R-FLAG-HIS and IL-23-HIS were run in SCK cycle type as described above except the final dissociation time were 60-300s. Sensorgrams from the entire titration series for each sample were fitted globally to extract binding kinetics and affinity using Biacore T200 Evaluation Software 2.0 (GE Healthcare) according to a 1:1 binding model. To identify IL-23 binders that can block receptor binding, a competition SPR was established. In each SPR cycle, fresh IL-23R was capture (<1000 RU) by injecting 10 μg/ml of IL-23R-Fc-AVI to a Protein-A flow cell at 10 μl/min flow rate for 30s. Analyte consisted of a mixture of 20 nM of IL-23 protein and a single concentration of peptide was then injected for 30s at 50 μl/min to observe IL-23 binding. Finally, the Protein-A surface was regenerated by 10 mM Glycine pH 1.5 for 30s at 30 μl/min. IL-23 at 20 nM without peptide, “IL-23 only”, was used as control to quantify IL-23 binding without blockage; while “cold” IL-23R was used as a positive control for blockage.

IL-23:IL-23R = target: T2, IL-23:IL-23R (Homo sapiens, UniProt P29460+Q9NPF7); assay: IL-23:IL-23R protein-protein interaction assay, AlphaLISA; format: biochemical; conditions: disruption of the complex formed by IL-23 and IL-23R
T2 construct: made in house
T2 sequence (Q9NPF7 20-189): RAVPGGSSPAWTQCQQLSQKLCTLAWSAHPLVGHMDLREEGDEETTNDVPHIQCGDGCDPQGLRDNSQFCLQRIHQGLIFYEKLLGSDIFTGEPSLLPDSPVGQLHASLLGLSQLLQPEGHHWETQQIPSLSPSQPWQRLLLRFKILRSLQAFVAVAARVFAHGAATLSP
T2 sequence (P29460 23-328 partner): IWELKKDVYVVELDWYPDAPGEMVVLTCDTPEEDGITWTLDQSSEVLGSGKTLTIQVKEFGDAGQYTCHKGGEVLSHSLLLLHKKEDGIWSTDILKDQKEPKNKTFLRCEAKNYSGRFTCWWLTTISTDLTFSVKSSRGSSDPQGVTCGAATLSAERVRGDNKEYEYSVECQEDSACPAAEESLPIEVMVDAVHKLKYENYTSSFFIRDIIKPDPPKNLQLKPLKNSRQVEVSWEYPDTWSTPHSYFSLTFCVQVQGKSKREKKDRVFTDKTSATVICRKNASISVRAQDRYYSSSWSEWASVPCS
Experimental: For AlphaLISA assay, peptides at concentration of 10 mM were dissolved in DMSO and serial 3-fold dilutions were carried out using acoustic technology, dispensing peptides directly into the assay plate (ProxiPlate-384 Plus). The rest of the reagents were dissolved in assay buffer containing 25 mM HEPES pH 7.4, 150 mM NaCl, 0.02% Tween 20 and 0.1% BSA. IL-23-AVI was pre-incubated with peptide at the indicated concentrations for 30 min at room temperature. Then, FLAG-tagged IL-23R was added to the assay mix and incubated at room temperature for 1 hour. This was followed by addition of Streptavidin-coated donor beads and acceptor beads conjugated to anti-FLAG antibody. Final assay concentration of IL-23-AVI and FLAG-IL-23R were 1.5 nM and 3 nM, respectively. The assay plate was incubated for one additional hour at RT and read in an Envision plate reader. For TR-FRET assay, tested compounds were serially diluted in DMSO using an Echo acoustic and dispensed directly into the final assay plate. Final concentration of DMSO in the assay was 1%. Assays were performed by preincubation of the diluted compounds with IL-23R-FLAG for one hour at room temperature in assay buffer containing 25 mM HEPES, 150 mM NaCl, 0.02% Tween 20, 0.1% BSA; pH 7.4. Next, IL-23-AVI was added to the assay mix and incubated for 1 hour at room temperature. Finally, the detection reagents, Europium-labeled streptavidin and Anti-FLAG IgG conjugated to SureLight–Allophycocyanin were added and incubated overnight at room temperature. Then, assay microplates were read and values were collected as the ratio between fluorescence emission at 665 nm and 615 nm (665/615). The final values were expressed as a percentage of the DMSO treated controls. IC50 values were calculated by fitting the normalized data to a four parameter logistic equation.

| kon (IL-23) [M⁻¹ s⁻¹] | AlphaLISA potency (IL-23:IL-23R) | SMILES |
| --- | --- | --- |
| 48300 | single digit micromolar | CC(C)C[C@@H]1NC(=O)[C@H](Cc2ccc(O)cc2)NC(=O)[C@H](Cc2ccc(O)cc2)NC(=O)[C@H](CC(C)C)NC(=O)[C@@H](NC(=O)[C@H](CCC(=O)O)NC(=O)[C@@H](N)CC(C)C)CSSC[C@@H](C(=O)N[C@@H](CC(=O)O)C(=O)N[C@@H](CC(N)=O)C(=O)O)NC(=O)[C@H](C(C)C)NC(=O)[C@H](CCCCN)NC(=O)[C@H](Cc2c[nH]c3ccccc23)NC(=O)[C@H](CCCNC(=N)N)NC1=O [23–447] (H-LECLYYLRWKVCDN-OH; disulfide 3-12) |
| 178000 | single digit micromolar | CC[C@H](C)[C@H](NC(=O)[C@H](CCC(=O)O)NC(=O)[C@H](CCCCN)NC(=O)[C@@H](NC(=O)[C@@H](N)Cc1ccccc1)[C@@H](C)O)C(=O)N[C@@H](CC(=O)O)C(=O)N[C@@H](CO)C(=O)N[C@@H](Cc1c[nH]c2ccccc12)C(=O)N[C@@H](Cc1c[nH]c2ccccc12)C(=O)N[C@@H](CC(C)C)C(=O)N[C@@H](CO)C(=O)N[C@@H](CC(C)C)C(=O)N[C@@H](CCSC)C(=O)N[C@@H](CO)C(=O)N[C@@H](CO)C(=O)O [23–437] (H-FTKEIDSWWLSLMSS-OH) |
| 190000 | single digit micromolar | CC[C@H](C)[C@H](NC(=O)[C@H](CCCCN)NC(=O)[C@@H](N)CCC(N)=O)C(=O)N[C@H](C(=O)N[C@@H](CCC(N)=O)C(=O)N[C@H]1CSSC[C@@H](C(=O)N[C@@H](CC(C)C)C(=O)N[C@@H](CC(C)C)C(=O)N[C@@H](CC(N)=O)C(=O)N[C@@H](CC(=O)O)C(=O)N[C@H](C(=O)O)C(C)C)NC(=O)[C@@H]2CCCN2C(=O)[C@H](Cc2ccc(O)cc2)NC(=O)[C@H]([C@@H](C)O)NC(=O)[C@H](Cc2c[nH]c3ccccc23)NC(=O)[C@H]([C@@H](C)CC)NC(=O)[C@H]([C@@H](C)CC)NC(=O)[C@H](Cc2ccc(O)cc2)NC(=O)[C@H](C(C)C)NC1=O)[C@@H](C)O [23–441] (H-QKITQCVYIIWTYPCLLNDV-OH; disulfide 6-15) |
